Experimental data reported in patent US5185319A, “Stabilization of organic compounds” (National Research Development Corporation, priority 1989, dated 1993).

What was measured:
[1] = biological target: porcine insulin (Sus scrofa, UniProt P01315); experiment: Stability of insulin in solution with chelating agent, reverse phase HPLC; format: physicochemical; settings: pH 7.0 solution; for effect on stability of insulin (amount of insulin present as percentage of the original amount): 100 μM chelating agent, 4, 8 and 12 weeks
Description: A solution was prepared corresponding to that described in Example 1 containing porcine insulin and being pyrogen-free but not sterile. For comparative purposes a further solution was prepared in which the hydroxypyridone was replaced by the alternative chelating agent 3-hydroxy-2-methyl-4-pyrone.
The solutions were incubated at either 4° C. or 37° C. and the stability of the insulin was studied over a period of 12 weeks through use of the reverse phase HPLC method described by Seipke et al, Angew. Chem. Int. Ed. Engl., 1986, 25, 535-552 and by Grau, Diabetologia, 1985, 28, 458-463. The amount of insulin present in the solution at 4, 8 and 12 weeks was then calculated as a percentage of the original amount present.

[2] = tested on: insulin; experiment: Investigation of chelating agents for stabilization of insulin; format: physicochemical

Sequence of porcine insulin (P01315 25-54 limits assumed): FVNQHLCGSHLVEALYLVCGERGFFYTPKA
Sequence of porcine insulin (P01315 88-108 limits assumed): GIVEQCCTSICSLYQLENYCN

Row | Compound | degradation of insulin over the whole period of 12 weeks ([1]; incubated at 4° C., 100 μM chelating agent) | effect on stability of insulin (amount of insulin present as percentage of the original amount) ([1]; incubated at 4° C.) | effect on stability of insulin (amount of insulin present as percentage of the original amount) ([1]; incubated at 37° C.) | stabilizing effect on insulin [2]
1 | COCCn1ccc(=O)c(O)c1C [3-hydroxy-1-(2'-methoxyethyl)-2-methylpyrid-4-one] | no degradation was observed | stabilises insulin | stabilises insulin, to some extent | –
2 | Cc1occc(=O)c1O [3-hydroxy-2-methyl-4-pyrone] | – | destabilises insulin | destabilises insulin | no stabilizing effect
3 | O=C(O)CN(CCN(CC(=O)O)CC(=O)O)CC(=O)O [ethylene diamine tetra-acetic acid] | – | – | – | no stabilizing effect
